Patent publication US6692927B2, “Bax degradation involvement in tumor survival and progression” (University of South Florida, priority 2000, dated 2004)
Where a SMILES comes first, the peptide text is derived from it. [ ]: non-standard residue; d: D form. The star is where a group is joined. Nva = CCC[C@H](N)C(=O)O; Cbz = O=C(OCc1ccccc1)*

Test system: Jurkat T cells overexpressing Bcl-2
Experiment: Western blot, fractionation, RT-PCR, immunostaining and IP in Bcl-2-overexpressing Jurkat T cells
Assay type: cell-based, human
Conditions: for cytoplasmic Bax-immunofluorescent signals: immunofluorescent staining
Experimental: FIGS. 7A-7H show proteasome inhibitor LLnV induces Bax accumulation, cytochrome c release and PARP cleavage in Bcl-2-overexpressing Jurkat T cells. (FIGS. 7A-7C) Jurkat T cells overexpressing Bcl-2 (0 h) were treated with 50 μM LLnV for up to 8 h, followed by preparation of cytosol and mitochondrial fractions. Both fractions were immunoblotted first by an antibody to cytochrome c (Cyto C, MW 17 kDa; FIG. 7A and FIG. 7C) and then reblotted by anti-cytochrome oxidase subunit II (COX, MW 26 kDa; FIG. 7B). Note: 20 μg protein from the cytosol, and 40 μg protein from the mitochondrial, preparation was used in each lane. (FIGS. 7D-7G) Whole cell extracts (70 μg per lane) of the above treated cells were immunoblotted with specific antibodies to PARP (FIG. 7D), Bax (clone N-20; FIG. E), Bcl-2 (FIG. 7F), or actin (FIG. 7G). Molecular masses of PARP, the PARP cleavage fragment (p85), Bax, Bcl-2 and actin are 113, 85, 21, 26 and 40 kDa, respectively. Positions of protein markers are indicated at right. (FIG. 7H) Bcl-2-expressing Jurkat cells (Control) were treated with 50 μM LLnV for 8 h, followed by RT-PCR. For the first-strand cDNA synthesis, 0.2 (lanes 1, 4), 0.6 (lanes 2, 5) and 1.8 μg (lanes 3, 6) of the total RNA were used. The positions of Bax (538 bp) and G3PDH mRNA (983 bp) are indicated. Lane M is DNA molecular weight marker.
FIGS. 8A-8D show proteasome inhibition accumulates Bax to mitochondria/cytoplasm and increases interaction between Bax and Bcl-2 proteins. Jurkat cells (0 h; FIG. 8A and FIG. 8B) or Jurkat cells overexpressing Bcl-2 (0 h; FIG. 8C and FIG. 8D) were treated by either 10 μM lactacystin (FIGS. 8A-8C), 50 μM LLnV (FIG. 8D), or 50 μM LLM (FIG. 8A and FIG. 8B) for the indicated hours. (FIG. 8A and FIG. 8B) Western blotting with antibodies to PARP and Bax were performed as described in FIG. 7. (FIG. 8C) Immunohistochemistry (see MATERIALS AND METHODS). Localization of Bax protein (green) and nuclei (red) are shown. (FIG. 8D) Bax immunoprecipitates, prepared by an agarose-conjugated N-20 Bax antibody, were immunoblotted first with the 6A7 Bax antibody (upper) and then reblotted with a Bcl-2 antibody (lower).
Cell Culture and Drug Treatment: Human breast cancer MCF-7 cells, Jurkat T cells, and Jurkat T cells stably transfected with pRcCMV vector containing a complete human bcl-2 cDNA (obtained from Dr. Hong-gang Wang, Moffitt Cancer Center & Research Institute) were grown in RPMI 1640 growth medium (An et al., 1998). Treatment of cell with a proteasome inhibitor was performed as described (An et al., 1998; Dou et al., 1999).
Western blot analysis and Immunoprecipitation: Whole cell extract (An et al., 1996), whole tissue extracts (Loda et al., 1997), and cytosol and mitochondria fractions (Fang et al., 1998) were prepared as described. The enhanced chemiluminescence Western blot assay was performed as described previously (An et al., 1996). To perform a coupled immunoprecipitation-Western blot assay, a whole cell or tissue extract (200 microg protein) was first precleared by incubating with protein A plus protein G agarose beads (Calbiochem) at 4° C. for 2 hours. The collected supernatant was then incubated for at least 3 hours with either […] of agarose beads conjugated with the N20 Bax antibody (Santa Cruz Biotech), or the 6A7 Bax antibody, followed by incubation with protein A/protein G beads at 4° C. overnight. The washed Bax immunoprecipitates were boiled in SDS sample buffer and used for Western blotting with antibodies to Bax, Bcl-2 or ubiquitin.
Immunocytochemistry and Reverse Transcriptase-Polymerase Chain Reaction (RT-PCR): Immunocytochemistry was performed with the rabbit polyclonal Bax antibody (N20) and an FITO-labeled goat anti-rabbit antibody (Southern Biotech.; Birmingham, Ala.), followed by counter-staining nuclei with propidium iodide (Sigma) (Bossy-Wetzel et al., 1998). To perform RT-PCR, total RNA was isolated from Jurkat T cells by an Advantage RT-for-PCR kit (Clontech; palo Alto, Calif.). […]

Structure (SMILES): CCC[C@@H](C=O)NC(=O)[C@H](CC(C)C)NC(=O)[C@H](CC(C)C)NC(=O)OCc1ccccc1 [LLnV] (Cbz-Leu-Leu-[Nva]-aldehyde)
- level of cytosolic cytochrome c (50 μM LLnV, 6 to 8 hours): increased
- level of Bax protein (Bax/p21) (50 μM LLnV, 1 hour or longer, Western blot): increased
- Bax mRNA level (50 μM LLnV, 8 h, RT-PCR): remained unchanged
- levels of Bax/p21 and Bax-bound Bcl-2 protein (50 μM LLnV, Bax immunoprecipitation-Western blot): significantly increased
- induction of apoptosis (PARP cleavage) (50 μM LLnV, up to 8 h): cleavage of PARP
- levels of the overexpressed Bcl-2 protein (50 μM LLnV, up to 8 h): Little changes
- cytoplasmic Bax-immunofluorescent signals: markedly increased

Structure (SMILES): CC(=O)N[C@@H](CSC(=O)[C@]1([C@@H](O)C(C)C)NC(=O)[C@H](C)[C@@H]1O)C(=O)O [lactacystin]
- cytoplasmic Bax-immunofluorescent signals: markedly increased
